Holding throughout (assay type): cell-based
The target in experiment [1] is T1, SST2 (Homo sapiens, UniProt P30874).
T1 construct: host or cells: PathHunter CHO-K1 SST2 cells
Description: PathHunter CHO-K1 SST2 Internalization Assay. Particulars: PathHunter CHO-K1 SST2 cells; 90 min at 37 C; luminescence; read-out: Internalization EC50. As for the experimental part:
NDCs of the present invention were assessed in vitro using the human PathHunter CHO-K1 SST2 β-arrestin2 and PathHunter CHO-K1 SST2 Internalization Assays from DiscoverX. The CHO-K cells were seeded in 20 μLs of cell culture medium in a white-walled 384 well tissue culture-compatible plate at a density of 2500 cells/well. After a 48-hour incubation, cells were treated with 5 μLs of a 1:3 serially diluted SST2 NDC prepared at 5× concentration with a final top compound concentration of 10 uM for 90 min at 37 C and in 5% CO2. 11 dilutions were tested as well as one treatment that was compound free. After incubation, the media containing treatments were discarded and 20 μL of a working solution of Beta-Glo from Promega Beta-Go Assay System was added to each well. The plate was then incubated for 60 min at room temperature in the dark. Luminescence was measured using a Tecan plate reader. IC50 curves were generated using the nonlinear regression analysis (four-parameters) with GraphPad Prism 9. Results were the average of duplicates and are corrected for background.

Experiment [2] has as its target T2, human somatostatin receptor subtype 2 (Homo sapiens, UniProt P30874).
T2 construct: expressed in transfected cells
Description: Functional assay for SSTR2 agonists (HTRF cAMP). To be noted: CHO-K1 cells stably expressing human SST2; NKH477-stimulated cAMP; 20 min at 37 C; read-out: hSST2 cAMP Avg EC50. From the text: General overview: All five SSTR subtypes are Gi coupled G-protein coupled receptors (GPCRs) that lead to decreases in intracellular cyclic AMP (cAMP) when activated by an agonist. Therefore, measurement of intracellular cAMP levels can be used to assess whether compounds of the invention are agonists of SSTR subtypes (John Kelly, Troy Stevens, W. Joseph Thompson, and Roland Seifert, Current Protocols in Pharmacology. 2005, 2.2.1-2.2). One example of an intracellular cAMP assay is described below.
Four days prior to the assay, 2,000 Chinese hamster ovary cells (CHO-K1, ATCC #CCL-61) stably expressing the human somatostatin receptor subtype 2 are plated in each well of a 96-well tissue culture-treated plate in Ham's F12 growth media (ThermoFisher #10-080-CM) supplemented with 10% donor bovine serum (Gemini Bio-Products #100-506), 100 U/mL penicillin; 100 ug/mL streptomycin, 2 mM L-glutamine (Gemini Bio-Products #400-110) and 0.2 mg/mL hygromycin B (GoldBio #31282-04-9). The cells are cultured at 37° C., 5% CO2 and 95% humidity. cAMP is measured with HTRF dynamic cAMP assay (Cisbio. #62AM5PEJ) per manufacturer's instructions. […] The cells are incubated for 20 minutes at 37° C. (the final concentration of the compounds of the invention are typically 0-10,000 nM). The cells are treated with 50 μL of lysis buffer (HRTF cAMP kit, Cisbio) and incubated at room temperature for 30 minutes with rotary shaking at 600 rpm, and then diluted with 150 μL of stimulation buffer and shaken for an additional five minutes at 300 rpm. The lysate is transferred to 384-well plates and incubated for 1-24 hours at room temperature, and cAMP accumulation is detected by d2-labeled cAMP and Anti-cAMP-Cryptate. The time-resolved fluorescent signal is read using a m1000 Pro (Tecan) or CLARIOStar (BMG Labtech) microplate reader, where the samples are excited with light at 340 nm and emission light is measured at 620 nm and 665 nm. The data is expressed as a calculation of the fluorescence ratio (665 nm/620 nm). The intracellular cAMP concentrations are calculated by regression to a standard curve and are plotted vs, the concentration of the compounds of the invention. The EC50 of the compounds are calculated using standard methods. All data manipulations are in GraphPad Prism v9 (GraphPad, San Diego, CA).
A general note: Time-resolved FRET reads energy transfer from a long-lived donor to a nearby acceptor.

The subject of experiment [3] is NCI-H524 human small cell lung cancer cells. The experiment in a line: H524 assay: inhibition of cell proliferation (CellTiter Glo). Particulars: 2 h treatment, washout, additional 70 h incubation. As for the experimental part:
NDCs of the present invention were assessed in an in vitro assay evaluating the inhibition of cell proliferation. NCI-H524 (ATCC) human small cell lung cancer cells were plated in 96-well V-bottom plates (Costar) at a concentration of 5,000 cells/well. 24 h later, the cells were treated for 2 h with a NDC. NDC starting dose was 1 uM and two-fold serial dilutions were done for a total of 11 points. After 2 h of treatment, cells were spun down, and the drug-containing media was removed, and fresh complete media was added and used to resuspend the cells, which were spun again. After removal of the media, the cells were resuspended in complete medium and incubated for an additional 70 h. Cell proliferation was assessed using the CellTiter Glo Assay according to the standard protocol (Promega). Luminescence was measured using a TECAN plate reader. Percent proliferation inhibition was calculated using the following formula: % inhibition=(Luminescence Control−Luminescence Treatment)/Luminescence Control*100. IC50 curves were generated using the nonlinear regression analysis (four-parameter) with GraphPad Prism 9.
Background: ATP-based viability assays read luminescence as a measure of living cells.

Each structure is given as a SMILES string.

T2 sequence (P30874 whole entry): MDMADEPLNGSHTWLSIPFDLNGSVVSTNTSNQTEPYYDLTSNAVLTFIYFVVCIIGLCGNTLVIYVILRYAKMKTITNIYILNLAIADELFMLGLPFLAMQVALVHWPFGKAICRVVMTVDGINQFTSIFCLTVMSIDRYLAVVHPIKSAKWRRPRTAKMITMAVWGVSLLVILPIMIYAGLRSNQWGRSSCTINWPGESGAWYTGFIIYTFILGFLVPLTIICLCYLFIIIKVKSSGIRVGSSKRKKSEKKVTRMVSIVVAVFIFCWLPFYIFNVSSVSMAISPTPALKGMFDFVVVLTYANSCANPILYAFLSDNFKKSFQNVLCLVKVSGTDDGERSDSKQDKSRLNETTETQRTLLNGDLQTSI
T1 sequence (P30874 whole entry): as above

By EC50 is commonly meant the concentration at which the effect is half-maximal. As to `CC[C@H](C)[C@@H]([C@@H](CC(=O)N1CCC[C@H]1[C@H](OC)[C@@H](C)C(=O)N[C@H](C)[C@@H](O)c1ccccc1)OC)N(C)C(=O)[C@@H](NC(=O)[C@H](C(C)C)N(C)C(=O)OCc1ccc(NC(=O)[C@H](CCCNC(N)=O)NC(=O)[C@@H](NC(=O)CCOCCC(=O)NCCNc2ncc(-c3cc(C)cc(F)c3)c(N3CCC(N)CC3)c2-c2nc3c(F)c(F)ccc3[nH]2)C(C)C)c(O[C@@H]2O[C@H](C(=O)O)[C@@H](O)[C@H](O)[C@H]2O)c1)C(C)C` [Compound 110], the values for the EC50 in experiment [1], in experiment [2] and in experiment [3] were 23 nM, 1 nM and 120 nM, respectively.

In the case of `CC[C@H](C)[C@@H]([C@@H](CC(=O)N1CCC[C@H]1[C@H](OC)[C@@H](C)C(=O)N[C@H](C)[C@@H](O)c1ccccc1)OC)N(C)C(=O)[C@@H](NC(=O)[C@H](C(C)C)N(C)C(=O)OCc1ccc(NC(=O)[C@H](CCCNC(N)=O)NC(=O)[C@@H](NC(=O)[C@@H](CS(=O)(=O)O)NC(=O)CCOCCC(=O)NCCNc2ncc(-c3cc(C)cc(F)c3)c(N3CCC(N)CC3)c2-c2nc3ccc(Cl)cc3[nH]2)C(C)C)cc1C(=O)N1CC(N)C1)C(C)C` [Compound 76], the results for the EC50 in experiment [1], in experiment [2] and in experiment [3] were 4.7 nM, 0.075 nM and 12 nM, respectively.

For `CC[C@H](C)[C@@H]([C@@H](CC(=O)N1CCC[C@H]1[C@H](OC)[C@@H](C)C(=O)N[C@H](C)[C@@H](O)c1ccccc1)OC)N(C)C(=O)[C@@H](NC(=O)[C@H](C(C)C)N(C)C(=O)OCc1ccc(NC(=O)[C@H](CCCNC(N)=O)NC(=O)[C@@H](NC(=O)[C@H](CCC(=O)O)NC(=O)CCOCCC(=O)NCCNc2ncc(-c3cc(C)cc(F)c3)c(N3CCC(N)CC3)c2-c2nc3ccc(Cl)cc3[nH]2)C(C)C)cc1C(F)(F)F)C(C)C` [Compound 2], the EC50 in experiment [1] worked out at 8.6 nM; in experiment [2], 0.57 nM; in experiment [3], 2500 nM.

`CC[C@H](C)[C@@H]([C@@H](CC(=O)N1CCC[C@H]1[C@H](OC)[C@@H](C)C(=O)N[C@H](C)[C@@H](O)c1ccccc1)OC)N(C)C(=O)[C@@H](NC(=O)[C@H](C(C)C)N(C)C(=O)OCc1ccc(NC(=O)[C@H](CCCNC(N)=O)NC(=O)[C@@H](NC(=O)C[C@@H](N)C(=O)NCCOCCC(=O)NCCNc2ncc(-c3cc(C)cc(F)c3)c(N3CCC(NC)CC3)c2-c2nc3cc(F)cc(OC)c3[nH]2)C(C)C)c(O[C@@H]2O[C@H](C(=O)O)[C@@H](O)[C@H](O)[C@H]2O)c1)C(C)C` [Compound 123]: the EC50 is 2.3 nM in experiment [1], 0.2 nM in experiment [2] and 8.4 nM in experiment [3].

With `CC[C@H](C)[C@@H]([C@@H](CC(=O)N1CCC[C@H]1[C@H](OC)[C@@H](C)C(=O)N[C@H](C)[C@@H](O)c1ccccc1)OC)N(C)C(=O)[C@@H](NC(=O)[C@H](C(C)C)N(C)C(=O)OCc1ccc(NC(=O)[C@H](CCCNC(N)=O)NC(=O)[C@@H](NC(=O)C2(NC(=O)CCCC(=O)N(C)CC(=O)NCCNc3ncc(-c4cc(C)cc(F)c4)c(N4CCC(N)CC4)c3-c3nc4ccc(Cl)cc4[nH]3)CCN(CC(=O)O)CC2)C(C)C)cc1)C(C)C` [Compound 173], the figures for the EC50 in experiment [1], in experiment [2] and in experiment [3] were 19 nM, 0.24 nM and 52 nM, respectively.

As to `CC[C@H](C)[C@@H]([C@@H](CC(=O)N1CCC[C@H]1[C@H](OC)[C@@H](C)C(=O)N[C@H](C)[C@@H](O)c1ccccc1)OC)N(C)C(=O)[C@@H](NC(=O)[C@H](C(C)C)N(C)C(=O)OCc1ccc(NC(=O)[C@H](CCCNC(N)=O)NC(=O)[C@@H](NC(=O)CCCC(=O)N(C)CC(=O)NCCNc2ncc(-c3cc(C)cc(F)c3)c(N3CCC(N)CC3)c2-c2nc3ccc(Cl)cc3[nH]2)C(C)C)c(O[C@@H]2O[C@H](C(=O)NCCN)[C@@H](O)[C@H](O)[C@H]2O)c1)C(C)C` [Compound 209], the EC50 in experiment [1] was 2.7 nM; in experiment [2] it was 0.11 nM; in experiment [3], 1.5 nM.

Take `CC[C@H](C)[C@@H]([C@@H](CC(=O)N1CCCC1[C@H](OC)[C@@H](C)C(=O)N[C@H](C)[C@@H](O)c1ccccc1)OC)N(C)C(=O)[C@@H](NC(=O)[C@H](C(C)C)N(C)C(=O)OCc1ccc(O[C@@H]2O[C@H](C(=O)O)[C@@H](O)[C@H](O)[C@H]2O)c(NC(=O)[C@H](C)NC(=O)[C@@H](NC(=O)CCOCCC(=O)NCCNc2ncc(-c3cc(C)cc(F)c3)c(N3CCC(N)CC3)c2-c2nc3ccc(Cl)cc3[nH]2)C(C)C)c1)C(C)C` (stereo partly drawn) [Compound 249]: the figures for the EC50 in experiment [1], in experiment [2] and in experiment [3] were 4.5 nM, 0.086 nM and 9.8 nM, respectively.

On to `CC[C@H](C)[C@@H]([C@@H](CC(=O)N1CCC[C@H]1[C@H](OC)[C@@H](C)C(=O)N[C@H](C)[C@@H](O)c1ccccc1)OC)N(C)C(=O)[C@@H](NC(=O)[C@H](C(C)C)N(C)C(=O)OCc1ccc(NC(=O)[C@H](CCCNC(N)=O)NC(=O)[C@@H](NC(=O)CCOCCC(=O)NCCNc2ncc(-c3cc(C)cc(F)c3)c(N3CCC(N)CC3)c2-c2nc3ccc(Cl)cc3[nH]2)C(C)C)c(O[C@@H]2O[C@H](C(=O)NCCNC(=O)CCC(=O)NS(=O)(=O)c3ccc4ccccc4c3)[C@@H](O)[C@H](O)[C@H]2O)c1)C(C)C` [Compound 224], for which the results for the 50% effective concentration (EC50) in experiment [1], in experiment [2] and in experiment [3] were 3.2 nM, 0.068 nM and 27 nM, respectively.

For the compound `CC[C@H](C)[C@@H]([C@@H](CC(=O)N1CCC[C@H]1[C@H](OC)[C@@H](C)C(=O)N[C@H](C)[C@@H](O)c1ccccc1)OC)N(C)C(=O)[C@@H](NC(=O)[C@H](C(C)C)N(C)C(=O)OCc1ccc(NC(=O)[C@H](C)NC(=O)[C@@H](NC(=O)CCOCCC(=O)NCCNc2ncc(-c3cc(C)cc(F)c3)c(N3CCC(N)CC3)c2-c2cc3ccc(OC)cc3[nH]2)C(C)C)c(O[C@@H]2O[C@H](C(=O)O)[C@@H](O)[C@H](O)[C@H]2O)c1)C(C)C` [Compound 117], the EC50 in experiment [1] worked out at 19 nM; in experiment [2], 0.46 nM; in experiment [3], 58 nM.

For `CC[C@H](C)[C@@H]([C@@H](CC(=O)N1CCC[C@H]1[C@H](OC)[C@@H](C)C(=O)N[C@H](C)[C@@H](O)c1ccccc1)OC)N(C)C(=O)[C@@H](NC(=O)[C@H](C(C)C)N(C)C(=O)OCc1ccc(NC(=O)[C@H](C)NC(=O)[C@@H](NC(=O)CCOCCC(=O)NCCNc2ncc(-c3cc(C)cc(F)c3)c(N3CCC(N)CC3)c2-c2nc3ccc(Cl)cc3[nH]2)C(C)C)c(O[C@@H]2O[C@H](C(=O)NCC(=O)O)[C@@H](O)[C@H](O)[C@H]2O)c1)C(C)C` [Compound 33], the half-maximal effective concentration (EC50) in experiment [1] was determined as 2.5 nM; in experiment [2], 0.15 nM; in experiment [3], 7 nM.

In the case of `CC[C@H](C)[C@@H]([C@@H](CC(=O)N1CCC[C@H]1[C@H](OC)[C@@H](C)C(=O)N[C@H](C)[C@@H](O)c1ccccc1)OC)N(C)C(=O)[C@@H](NC(=O)[C@H](C(C)C)N(C)C(=O)OCc1ccc(NC(=O)[C@H](CCCNC(N)=O)NC(=O)[C@@H](NC(=O)[C@H](CCC(N)=O)NC(=O)CCOCCC(=O)NCCNc2ncc(-c3cc(C)cc(F)c3)c(N3CCC(N)CC3)c2-c2nc3ccc(Cl)cc3[nH]2)C(C)C)cc1C(=O)O)C(C)C` [Compound 5], the EC50 in experiment [1] came out at 2.2 nM; in experiment [2], 0.29 nM; in experiment [3], 520 nM.
